As a reminder, the solubility is the dissolved amount per volume that the medium holds. What is called AC50 is the midpoint of the concentration-response curve, whichever way the signal moves.

Results on one compound are retold here after PMC10222839, “Development of Novel Small-Molecule Activators of Pyruvate Kinase Muscle Isozyme 2, PKM2, to Reduce Photoreceptor Apoptosis” (Pharmaceuticals, 2023).

The test system of data set [1] is caspase 3 and 7 activation in 661W cells. The data set is described as follows: Caspase 3/7 activity assay in 661W cells (Caspase-Glo 3/7). It counts as cell-based. How it is done: (§1) To be confident the pyridazinoindolone core could be utilized in future medicinal chemistry efforts, its photoreceptor neuroprotective effect was assessed. […] Fas signaling has a critical role in caspase activation and photoreceptor apoptosis after experimental retinal detachment. 661W cells die via caspase-mediated mechanisms, and the Fas-ligand (FasL) treatment of these cells leads to the activation of caspases and subsequent death, analogous to the in vivo experimental retinal detachment model. Furthermore, similar to photoreceptors, 661W cells express PKM2 (Figure 4a), and these cells have been used to garner information on the role of metabolism in photoreceptor degeneration. As such, this is a suitable in vitro model of photoreceptor stress that can be utilized to assess the consequences of reprogramming metabolism by pharmacologically activating PKM2 [9]. 661W cells were treated with FasL and either compound 2 or vehicle (DMSO).
(§2) Caspase 8 and caspase 3/7 activity was measured using luminescent assay kits (Caspase-Glo 8 and 3/7 Assay Systems, Promega, Madison, WI, USA, Cat Nos. G8200 and G8090, respectively). […] As previously published, caspase activity was measured 8 h after treatment by incubating cells with substrate for 1 h as per the manufacturer’s instructions. A plate reader luminometer (BMG Labtech, Inc., Cary, NC, USA) assessed luminescence.

Data set [2] can be described thus: Aqueous solubility (Eurofins Panlabs, HPLC-UV/Vis). The class given is physicochemical. Conditions: aqueous buffer, kinetic from dmso stock; PBS, pH 7.4, 24 h, room temperature (Table 1). How it is done: In brief, each compound was tested at a concentration of 200 μM in PBS, pH 7.4, and room temperature. […] The area of the principal peak in a calibration standard for each compound (200 μM) in organic solvent (60/40 v/v% methanol: water) was compared to the area of the corresponding peak in the PBS sample [42]. Compounds 16–21 underwent solubility testing at Analiza (Cleveland, OH, USA), a contract research organization. Five hundred microliters of PBS, pH 7.4 was added to each amount of compound provided. The samples were vortexed briefly and then placed on a rotary shaker at 200 RPM for 24 h at ambient temperature. Thereafter, the samples were vacuum filtered through a 0.45-micron membrane, and the filtrates were injected into a nitrogen detector for quantification. The nitrogen detector was calibrated using standards, and the filtrates were quantitated based on the calibration curve.

Data set [3] relates to caspase 8 activation in 661W cells. The data set can be described thus: Caspase 8 activity assay in 661W cells (Caspase-Glo 8). It counts as cell-based. As to the method:
as §1, §2

The target in another data set is T1, human recombinant PKM2 (Homo sapiens, UniProt P14618).
T1 construct: purchased Sigma SAE0021
T1 sequence (P14618 whole entry): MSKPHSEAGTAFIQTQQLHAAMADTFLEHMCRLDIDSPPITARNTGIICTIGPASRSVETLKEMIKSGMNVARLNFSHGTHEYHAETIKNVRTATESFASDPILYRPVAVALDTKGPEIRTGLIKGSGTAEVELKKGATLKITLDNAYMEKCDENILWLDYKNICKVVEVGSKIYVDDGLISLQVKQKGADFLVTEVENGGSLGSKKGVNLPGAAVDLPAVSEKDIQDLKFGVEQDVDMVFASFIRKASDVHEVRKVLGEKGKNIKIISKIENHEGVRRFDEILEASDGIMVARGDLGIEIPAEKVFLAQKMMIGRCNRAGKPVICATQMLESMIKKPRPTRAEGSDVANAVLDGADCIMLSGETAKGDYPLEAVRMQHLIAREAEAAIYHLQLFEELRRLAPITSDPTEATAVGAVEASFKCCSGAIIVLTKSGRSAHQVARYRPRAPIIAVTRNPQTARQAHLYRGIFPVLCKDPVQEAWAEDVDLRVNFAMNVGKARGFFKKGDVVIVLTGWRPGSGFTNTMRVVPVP
The data set can be described thus: Pyruvate kinase enzyme-coupled (LDH/NADH) assay with recombinant PKM2. The class given is biochemical. As to the method:
Recombinant Enzyme. An enzyme-coupled assay that measures the depletion of NADH via absorbance at 340 nm and uses lactate dehydrogenase (LDH) was employed to determine the activity of pyruvate kinase (PK). To determine the AC50 (concentration of activator necessary to achieve half-maximal activation) of the different small molecules with PKM2, assays were conducted in a 96-well format using 200 μL/well assay volume with 10 nM human recombinant PKM2 (Sigma, St. Louis, MO, USA, Cat No. SAE0021) or PKM1 (Sigma, […], Cat No. SRP0415), differing concentrations of activator, 0.5 mM PEP, 1 mM ADP, 0.2 mM NADH, and 8 U of LDH in a buffer of 50 mM Tris-HCl (pH 7.4), 100 mM KCl, and 5 mM MgCl2 as previously described. A SPECTROstar Omega plate reader (BMG LABTECH Inc., Cary, NC, USA) monitored absorbance at 340 nm. The MARS software suite was utilized to determine initial velocities. Data were normalized to DMSO (dimethyl sulfoxide)-treated enzyme activity, as previously described.

For data set [4], the target named is T2, pyruvate kinase (PK) activity in rat retina (Rattus norvegicus, UniProt P11980).
T2 construct: the retina from each rat eye was dissected from the RPE-choroid, homogenized, and lysed; from tissue; host or cells: retina of adult Brown-Norway rats
T2 sequence (P11980 1-531 isoform P11980-2): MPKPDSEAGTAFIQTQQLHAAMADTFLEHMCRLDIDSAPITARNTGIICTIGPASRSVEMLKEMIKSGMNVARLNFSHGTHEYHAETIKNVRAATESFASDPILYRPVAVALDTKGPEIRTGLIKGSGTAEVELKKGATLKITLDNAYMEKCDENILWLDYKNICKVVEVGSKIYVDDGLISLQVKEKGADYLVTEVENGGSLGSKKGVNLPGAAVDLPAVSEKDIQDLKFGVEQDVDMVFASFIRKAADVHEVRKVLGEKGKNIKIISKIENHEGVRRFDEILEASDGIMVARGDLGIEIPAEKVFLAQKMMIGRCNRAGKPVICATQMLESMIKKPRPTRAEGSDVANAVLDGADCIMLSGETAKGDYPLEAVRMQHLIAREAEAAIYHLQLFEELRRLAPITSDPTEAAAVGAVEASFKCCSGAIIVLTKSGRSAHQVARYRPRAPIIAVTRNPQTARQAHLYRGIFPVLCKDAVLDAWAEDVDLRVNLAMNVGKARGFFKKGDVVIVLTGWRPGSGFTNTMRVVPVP
The data set can be described thus: PK activity in rat retina after intravitreal injection. The class given is in vivo. As to conditions: increasing concentrations, intravitreal injection in rats, retina 4 h. As to the method: The intravitreal injection of medications has revolutionized how numerous retinal diseases are treated and are ever-increasing in ophthalmic clinical practice. Therefore, to assess the ability of these small molecules to activate PK in vivo in the rat retina, we utilized this well-accepted drug delivery method. Two microliters of each respective compound at 850 μM or DMSO were intravitreally injected into rat eyes. The vitreous volume of the rat eye was assumed to be 15 μL, giving a final intravitreal concentration of approximately 100 μM for each compound after injection. Retinas were harvested four hours after injection, lysed, and assayed for PK activity as previously described. The eyes treated with DMSO served as the control upon which PK activation was based.
Two microliters of each respective compound at 8.5 μM (final vitreous concentration of 1 μM) or DMSO was intravitreally injected into rat eyes, and the PK activity was assessed four hours later.
Animals. Intravitreal injections of various small-molecule PKM2 activators or vehicle (DMSO) were performed in Brown-Norway adult rats. The rats were anesthetized with ketamine (90 mg/mL) and xylazine (10 mg/mL) and their pupils dilated with topical phenylephrine (2.5%) and tropicamide (1%) as described previously. A sclerotomy was created with a 25-gauge microvitreoretinal blade (Walcott Rx Products, Ocean View, NJ, USA) just posterior to the limbus. A blunt 35-gauge cannula was inserted through this sclerotomy into the vitreous cavity to deliver 2 μL of different concentrations of small-molecule activator or DMSO. This injection volume produces minimal reflux with adequate reproducibility. Fifteen microliters of vitreous volume was assumed in rats to calculate the intravitreal concentrations of the compound after injection. As we have previously described, left eyes were treated with small-molecular activator, while right eyes were treated with DMSO, which served as the control upon which pyruvate kinase activation was based. Four hours later, the retina from each rat eye was dissected from the RPE-choroid, homogenized, and lysed in RIPA Lysis and Extraction Buffer with protease inhibitors. The pyruvate kinase (PK) activity assay, as described above, was performed using 4 to 8 microliters of rat retinal lysate, similar to what we and others have previously described. Analogous to the cell culture assays, the total protein of the lysate was used to normalize pyruvate kinase activity.

[5] abbreviates: no FasL, concentration near AC50 or more than 10-fold greater.

Converted amounts (≈) assume the structure as drawn.

For `Cn1c2cc([S+](C)[O-])ccc2c2cnn(Cc3cccc(N)c3)c(=O)c21` (stereo not drawn) [Compound 2], the “caspase 3 and 7 activation” value in data set [1] (in presence of 500 ng/mL FasL, highest concentration tested, 8 h, versus DMSO) was “significantly decreased”. For the same compound, in data set [1] (setting [5]), the “caspase 3 and 7 activity, compound alone” value was “no significant effect”. Moreover, the solubility at 24 h in data set [2] was 99.8 µM (≈ 36.6 µg/mL). Besides, in data set [3] (in presence of 500 ng/mL FasL, all concentrations tested, 8 h, versus DMSO), the “caspase 8 activation” value is on record as “significantly decreased”. Moreover, in data set [3] (setting [5]), the “caspase 8 activity, compound alone” value is recorded as “no significant effect”. Also, the AC50 is 50 ± 12 nM on human recombinant PKM2 (recombinant human PKM2, n = 3, best-fit value ± std. error) and 299 ± 42 nM in data set [4] (read-out: in vivo AC50). Besides, the Emax on human recombinant PKM2 (recombinant human PKM2, n = 3, normalized to DMSO-treated enzyme, read-out: Recombinant PKM2 Max Activation) amounted to 292 ± 20%; in data set [4] (rat, normalized to DMSO, read-out: in vivo PK activity (maximum activation)), 183 ± 4%.
